Measurements published in US11708360B2, “N-substituted-dioxocyclobutenylamino-3-hydroxy-picolinamides useful as CCR6 inhibitors” (Pfizer Inc., priority 2018, dated 2023).

Assays:
[1] = target: T1, CXCR2 (Homo sapiens, UniProt P25025); assay: Human Neutrophil Chemotaxis Assay; type: cell-based; set-up: Human neutrophils were purified from freshly drawn human whole blood; endogenous in cells; host or cells: primary human neutrophils from fresh whole blood; conditions: Table 12; human neutrophils migrating towards the CXCR2 ligand GROα; read-out: IC50
T1 sequence (P25025 1-360): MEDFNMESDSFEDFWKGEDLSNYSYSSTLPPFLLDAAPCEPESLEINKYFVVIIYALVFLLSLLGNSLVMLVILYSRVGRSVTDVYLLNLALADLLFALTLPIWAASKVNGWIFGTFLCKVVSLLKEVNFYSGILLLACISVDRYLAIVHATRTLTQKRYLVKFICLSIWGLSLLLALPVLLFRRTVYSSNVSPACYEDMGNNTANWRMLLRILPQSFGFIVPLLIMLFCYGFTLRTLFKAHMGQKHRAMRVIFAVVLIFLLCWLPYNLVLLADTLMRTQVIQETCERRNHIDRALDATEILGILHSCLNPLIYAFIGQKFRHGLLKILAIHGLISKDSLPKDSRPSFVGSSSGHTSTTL
Description: After 30 min, the labeled neutrophils were washed twice in chemotaxis buffer, resuspended as before and used immediately. For the assay, test compounds were tested in a dose-response format to determine IC50. Labeled neutrophils (50 μL) were pre-incubated with diluted test compound (50 μL) for 30 min in a 96-well plate (Greiner). Next, 100 μL of diluted compound was mixed with 100 μL of GROα (Peprotech #300-11, 2 nM) in the bottom portion of the chemotaxis chamber. The top portion (insert) of the chemotaxis system containing the FluoroBlok porous membrane was then assembled together. 50 μL of the pre-incubated neutrophils were added to the FluoroBlok insert (top portion) and chemotaxis measured by the neutrophils ability to migrate through the membrane towards the specific CXCR2 ligand, GROα.
IC50 values for compounds of the present invention (Table 12) were determined by the non-linear regression analysis of dose response curves.

[2] = target: T2, CCR6 (Homo sapiens, UniProt P51684); assay: CCR6+ T Cell Chemotaxis Assay; type: cell-based; conditions: for IC50: Table 11, human CD4+CCR6+CXCR3- T cells, CCL20 0.5 nM in bottom chamber, 1 h at 37° C., read-out: IC50; for T Cell Chemotaxis Selectivity: Table 13, T cell chemotaxis compared to neutrophil chemotaxis, NS = not selective for T cell chemotaxis compared to neutrophil chemotaxis
T2 construct: Human CD4+CCR6+CXCR3-T cells were isolated from leukopak from healthy donors; endogenous in cells
T2 sequence (P51684 1-374): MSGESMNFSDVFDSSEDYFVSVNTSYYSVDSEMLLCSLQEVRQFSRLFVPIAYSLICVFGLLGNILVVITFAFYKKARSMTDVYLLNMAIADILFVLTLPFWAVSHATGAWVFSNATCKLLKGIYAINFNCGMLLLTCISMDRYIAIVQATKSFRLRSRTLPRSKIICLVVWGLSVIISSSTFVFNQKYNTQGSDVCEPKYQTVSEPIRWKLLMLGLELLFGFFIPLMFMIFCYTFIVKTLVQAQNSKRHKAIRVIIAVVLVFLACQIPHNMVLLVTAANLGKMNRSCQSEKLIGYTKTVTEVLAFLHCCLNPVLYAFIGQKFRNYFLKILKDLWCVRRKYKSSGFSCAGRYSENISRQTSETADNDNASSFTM
Text: Human CD4+CCR6+CXCR3-T cells were isolated from leukopak from healthy donors using EasySep™ Human Th17 Cell Enrichment Kit. […] Day 4 post activation, Dynabeads were removed from the culture. The activated T cells were maintained at 1-2×10^6 cells/mL for 15 days by feeding fresh growth media when needed.
For IC50 determination, the top and bottom of the chemotaxis chamber contained the same concentration of compound. DMSO was kept constant at 0.1% (v/v) in all wells. The final concentration of CCL20 (Peprotech 300-29A) in the bottom chamber is 0.5 nM. The fully assembled chemotaxis plate was placed in a cell culture incubator at 37° C., 5% CO2 for 1 h. After incubation, the top filter was removed, followed by a quick freeze of the bottom chamber at −80° C. for 1 h. The migrated cells in the bottom chamber were stained with CyQUANT dye (Life Technologies, C7026) for cell number determination.
IC50 values for compounds of the present invention (Table 11) were determined by the non-linear regression analysis of dose response curves.

Compound | IC50 [1] | IC50 [2] | T Cell Chemotaxis Selectivity [2]
COc1cn(C)nc1[C@H](Nc1c(Nc2ccnc(C(=O)N(C)C)c2O)c(=O)c1=O)C(C)(C)C [Example 13, (R)-3-Hydroxy-4-((2-((1-(4-methoxy-1-methyl-1H-pyrazol-3-yl)-2,2-dimethylpropyl)amino)-3,4-dioxocyclobut-1-en-1-yl)amino)-N,N-dimethylpicolinamide] | 328 nM | 5.4 nM | 60
COc1cn(C)nc1[C@H](Nc1c(Nc2ccnc(C(=O)N(C)C(C)C)c2O)c(=O)c1=O)C(C)(C)C [Example 14, (R)-3-Hydroxy-N-isopropyl-4-((2-((1-(4-methoxy-1-methyl-1H-pyrazol-3-yl)-2,2-dimethylpropyl)amino)-3,4-dioxocyclobut-1-en-1-yl)amino)-N-methylpicolinamide] | 272 nM | 12.5 nM | 22
CN(C)C(=O)c1nccc(Nc2c(N[C@@H](c3nn(C)cc3OC(F)F)C3(C)CCCC3)c(=O)c2=O)c1O [Example 15, (R)-4-((2-(((4-(Difluoromethoxy)-1-methyl-1H-pyrazol-3-yl)(1-methylcyclopentyl)methyl)amino)-3,4-dioxocyclobut-1-en-1-yl)amino)-3-hydroxy-N,N-dimethylpicolinamide] | 735 nM | 10.6 nM | 69
CN(C)C(=O)c1nccc(Nc2c(N[C@@H](c3nn(C)cc3C#N)C3(C)CCCC3)c(=O)c2=O)c1O [Example 16, (R)-4-((2-(((4-Cyano-1-methyl-1H-pyrazol-3-yl)(1-methylcyclopentyl)methyl)amino)-3,4-dioxocyclobut-1-en-1-yl)amino)-3-hydroxy-N,N-dimethylpicolinamide] | 4350 nM | 41.7 nM | 104
CCc1cn(C)nc1[C@H](Nc1c(Nc2ccnc(C(=O)N(C)C)c2O)c(=O)c1=O)C1(C)CCCC1 [Example 18, (R)-4-((2-(((4-Ethyl-1-methyl-1H-pyrazol-3-yl)(1-methylcyclopentyl)methyl)amino)-3,4-dioxocyclobut-1-en-1-yl)amino)-3-hydroxy-N,N-dimethylpicolinamide] | 1010 nM | 3.3 nM | 306
Cc1nc([C@H](Nc2c(Nc3ccnc(C(=O)N(C)C)c3O)c(=O)c2=O)C2(C)CC2)c(C)s1 [Example 19, (R)-4-((2-(((2,5-Dimethylthiazol-4-yl)(1-methylcyclopropyl)-methyl)amino)-3,4-dioxocyclobut-1-en-1-yl)amino)-3-hydroxy-N,N-dimethylpicolinamide] | 197 nM | 70.6 nM | 3
Cc1cn(C)nc1[C@H](Nc1c(Nc2ccnc(C(=O)N(C)C)c2O)c(=O)c1=O)C1(C)CC1 [Example 20, (R)-4-((2-(((1,4-Dimethyl-1H-pyrazol-3-yl)(1-methylcyclopropyl)methyl)amino)-3,4-dioxocyclobut-1-en-1-yl)amino)-3-hydroxy-N,N-dimethylpicolinamide] | 167 nM | 271 nM | 
CCc1cn(C)nc1[C@H](Nc1c(Nc2ccnc(C(=O)N(C)C)c2O)c(=O)c1=O)C1(C)CC1 [Example 21, (R)-4-((2-(((4-Ethyl-1-methyl-1H-pyrazol-3-yl)(1-methylcyclopropyl)methyl)amino)-3,4-dioxocyclobut-1-en-1-yl)amino)-3-hydroxy-N,N-dimethylpicolinamide] | 293 nM | 102 nM | 3

Other lines, results leading:

IC50 [1] | IC50 [2] | T Cell Chemotaxis Selectivity [2] | Compound
141 nM | 7.4 nM | 19 | Cc1cn(C)nc1[C@H](Nc1c(Nc2ccnc(C(=O)N(C)C)c2O)c(=O)c1=O)C(C)(C)C [Example 22, (R)-4-((2-((1-(1,4-Dimethyl-1H-pyrazol-3-yl)-2,2-dimethylpropyl)amino)-3,4-dioxocyclobut-1-en-1-yl)amino)-3-hydroxy-N,N-dimethylpicolinamide]
248 nM | 16.5 nM | 15 | Cc1cn(C)nc1[C@H](Nc1c(Nc2ccnc(C(=O)N(C)C)c2O)c(=O)c1=O)C1(C)CCC1 [Example 23, (R)-4-((2-(((1,4-Dimethyl-1H-pyrazol-3-yl)(1-methylcyclobutyl)methyl)amino)-3,4-dioxocyclobut-1-en-1-yl)amino)-3-hydroxy-N,N-dimethylpicolinamide]
1010 nM | 3.1 nM | 325 | Cc1nc([C@H](Nc2c(Nc3ccnc(C(=O)N(C)C)c3O)c(=O)c2=O)C2(C)CCC2)c(C)s1 [Example 24, (R)-4-((2-(((2,5-Dimethylthiazol-4-yl)(1-methylcyclobutyl)-methyl)amino)-3,4-dioxocyclobut-1-en-1-yl)amino)-3-hydroxy-N,N-dimethylpicolinamide]
355 nM | 1.2 nM | 296 | Cc1nc([C@H](Nc2c(Nc3ccnc(C(=O)N(C)C)c3O)c(=O)c2=O)C(C)(C)C)c(C)s1 [Example 25, (R)-4-((2-((1-(2,5-Dimethylthiazol-4-yl)-2,2-dimethylpropyl)-amino)-3,4-dioxocyclobut-1-en-1-yl)amino)-3-hydroxy-N,N-dimethylpicolinamide]
142 nM | 3.3 nM | 43 | CCc1cn(C)nc1[C@H](Nc1c(Nc2ccnc(C(=O)N(C)C)c2O)c(=O)c1=O)C1(C)CCC1 [Example 26, (R)-4-((2-(((4-Ethyl-1-methyl-1H-pyrazol-3-yl)(1-methylcyclobutyl)methyl)amino)-3,4-dioxocyclobut-1-en-1-yl)amino)-3-hydroxy-N,N-dimethylpicolinamide]
52.6 nM | 13.2 nM | 4 | CCc1cn(C)nc1[C@H](Nc1c(Nc2ccnc(C(=O)N(C)C)c2O)c(=O)c1=O)C(C)(C)C [Example 27, (R)-4-((2-((1-(4-Ethyl-1-methyl-1H-pyrazol-3-yl)-2,2-dimethylpropyl)amino)-3,4-dioxocyclobut-1-en-1-yl)amino)-3-hydroxy-N,N-dimethylpicolinamide]
2190 nM | 36.7 nM | 60 | Cc1sc(CO)nc1[C@H](Nc1c(Nc2ccnc(C(=O)N(C)C)c2O)c(=O)c1=O)C1(C)CCCC1 [Example 28, (R)-3-Hydroxy-4-((2-(((2-(hydroxymethyl)-5-methylthiazol-4-yl)(1-methylcyclopentyl)methyl)amino)-3,4-dioxocyclobut-1-en-1-yl)amino)-N,N-dimethylpicolinamide]
4410 nM | 12 nM | 367 | CN(C)C(=O)c1nccc(Nc2c(N[C@@H](c3nn(C)cc3C3CC3)C3(C)CCCC3)c(=O)c2=O)c1O [Example 29, (R)-4-((2-(((4-Cyclopropyl-1-methyl-1H-pyrazol-3-yl)(1-methylcyclopentyl)methyl)amino)-3,4-dioxocyclobut-1-en-1-yl)amino)-3-hydroxy-N,N-dimethylpicolinamide]
4030 nM | 96.1 nM | 42 | CCN(C)C(=O)c1nccc(Nc2c(N[C@@H](c3nn(C)cc3C#N)C3(C)CCCC3)c(=O)c2=O)c1O [Example 30, (R)-4-((2-(((4-Cyano-1-methyl-1H-pyrazol-3-yl)(1-methylcyclopentyl)methyl)amino)-3,4-dioxocyclobut-1-en-1-yl)amino)-N-ethyl-3-hydroxy-N-methylpicolinamide]
